Data taken from ChEMBL document CHEMBL4339189, “Dissymmetric pyridyl-substituted 3,5-bis(arylidene)-4-piperidones as anti-hepatoma agents by inhibiting NF-κB pathway activation” (Eur J Med Chem, 2019).
Activity calls are given as the source filed them. No cut-off for these calls is given here.

How the values were obtained:
Mus musculus = assay: Antiinflammatory activity in human HepG2 cells xenografted Balb/c nude mouse assessed as reduction in TNFalpha protein expression at 1 mg/kg, ip administered every 2 days for 20 days and measured every 2 days by immunohistochemistry; format: functional, organism-based
L02 = assay: Cytotoxicity against human LO2 cells assessed as reduction in cell viability incubated for 24 hrs by MTT assay; format: cell-based; conditions: L02, 24 h
RAW264.7 = assay: Antiinflammatory activity in mouse RAW264.7 cells assessed as inhibition of LPS-stimulated IL-6 production 6.0 uM preincubated for 2 hrs followed by LPS stimulaton measured after 22 hrs by ELISA relative to control; format: functional
QGY-7703 = assay: Induction of apoptosis in human QGY7703 cells assessed as increase in apoptotic cell population at 4.0 uM incubated for 24 hrs by Annexin V-FITC/propidium iodide staining based flow cytometry relative to control; format: functional
SMMC-7721 = assay: Induction of apoptosis in human SMMC7721 cells assessed as increase in apoptotic cell population at 4.0 uM incubated for 24 hrs by Annexin V-FITC/propidium iodide staining based flow cytometry relative to control; format: functional
HepG2 [1] = assay: Induction of apoptosis in human HepG2 cells assessed as reduction in Bcl-2 expression up to 4 uM after 24 hrs by Western blot analysis; format: functional, cell-based
HepG2 [2] = assay: Induction of apoptosis in human HepG2 cells assessed as increase in cleaved caspase-3 expression up to 4 uM after 24 hrs by Western blot analysis; format: functional, cell-based
HepG2 [3] = assay: Antitumor activity against human HepG2 cells xenografted in Balb/c nude mouse assessed as tumor volume level at 10 mg/kg, ip administered every 2 days for 20 days and measured every 2 days; format: functional
[4] = molecular target: Transcription factor p65 (Homo sapiens) (UniProt Q04206); assay: Inhibition of LPS-induced NFkappaB p65 nuclear translocation in human HepG2 cells at 4 uM incubated for 2 hrs after pre-incubation with LPS for 15 mins by DAPI staining-based immunofluorescence assay; format: cell-based
HepG2 [5] = assay: Antitumor activity against human HepG2 cells xenografted in Balb/c nude mouse assessed as effect on tumor volume level at 1 mg/kg, ip administered every 2 days for 20 days and measured every 2 days; format: functional, organism-based

Chain of Transcription factor p65 (Homo sapiens) (Q04206 whole entry): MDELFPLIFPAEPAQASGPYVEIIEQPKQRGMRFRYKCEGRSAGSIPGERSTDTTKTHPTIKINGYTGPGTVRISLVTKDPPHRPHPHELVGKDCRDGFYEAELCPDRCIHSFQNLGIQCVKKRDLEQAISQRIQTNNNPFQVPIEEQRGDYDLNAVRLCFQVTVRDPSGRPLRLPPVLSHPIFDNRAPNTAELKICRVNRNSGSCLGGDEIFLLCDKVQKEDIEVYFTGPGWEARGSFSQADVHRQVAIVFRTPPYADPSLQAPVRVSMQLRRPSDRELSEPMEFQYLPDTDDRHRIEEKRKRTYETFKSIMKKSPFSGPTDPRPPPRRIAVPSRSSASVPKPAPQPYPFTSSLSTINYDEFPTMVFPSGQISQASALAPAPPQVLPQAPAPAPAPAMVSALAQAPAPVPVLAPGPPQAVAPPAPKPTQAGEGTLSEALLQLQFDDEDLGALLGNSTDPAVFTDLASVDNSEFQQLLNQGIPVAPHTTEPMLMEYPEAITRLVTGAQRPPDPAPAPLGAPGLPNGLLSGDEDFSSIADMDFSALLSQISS

inhibition [4]: Active
SMILES: O=C1/C(=C/c2cccnc2)CN(S(=O)(=O)c2ccc(C(F)(F)F)cc2)C/C1=C\c1ccccc1C(F)(F)F
Activity (Mus musculus): Active
IC50 (L02): 14.3 µM
inhibition (INH) (RAW264.7): <=15%
Activity (QGY-7703): >70%
Activity (SMMC-7721): >70%
Activity (HepG2 [1]): Dose-dependent effect
Activity (HepG2 [2]): Dose-dependent effect
Activity (HepG2 [3]): <200 mm3
Activity (HepG2 [5]): inactive
